Source: ChEMBL document CHEMBL1201862, “PubChem BioAssay data set” (2004)
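96-well plates; 48 h exposure; 5 concentrations. Endpoints by linear interpolation between flanking doses. Not reached: highest tested concentration assigned. GI50: concentration for 50% inhibition of growth.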 The source made the active and inactive calls. Rule as the data show it: active = GI50 up to about 1.1 µM and inactive = higher.

Experiments:
Test in all cases: NCI-60 cell line screen, 48 h
HL-60 = tested on: HL-60
MDA-MB-231 = tested on: MDA-MB-231
SW-620 = tested on: SW-620
NCI/ADR-RES = tested on: NCI/ADR-RES
SK-MEL-5 = tested on: SK-MEL-5
KM12 = tested on: KM12
SF-295 = tested on: SF-295
SK-OV-3 = tested on: SK-OV-3
A549 = tested on: A549
UACC-257 = tested on: UACC-257
LOX IMVI = tested on: LOX IMVI
EKVX = tested on: EKVX
SF-268 = tested on: SF-268
SNB-75 = tested on: SNB-75
NCI-H226 = tested on: NCI-H226
OVCAR-4 = tested on: OVCAR-4
PC-3 = tested on: PC-3
Hs-578T = tested on: Hs-578T
HCC 2998 = tested on: HCC 2998
CCRF-CEM = tested on: CCRF-CEM

## CC12OC(=O)[C@@]3(O)CCC4C(C[C@H]5O[C@]56CC=CC(=O)[C@]46C)C45OC[C@H]6C(=O)O[C@@H]1C[C@@]6(C)[C@H](C4=O)C23O5 (some centres not stated)
HL-60
  GI50: 0.121 µM (active)
MDA-MB-231
  GI50: 0.885 µM (active)
SW-620
  GI50: 0.671 µM (active)
NCI/ADR-RES
  GI50: 8.51 µM (inactive)
SK-MEL-5
  GI50: 1.53 µM (inactive)
KM12
  GI50: 1.85 µM (inactive)
SF-295
  GI50: 4.25 µM (inactive)
SK-OV-3
  GI50: 5.53 µM (inactive)
A549
  GI50: 3.83 µM (inactive)
UACC-257
  GI50: 1.32 µM (inactive)
LOX IMVI
  GI50: 1.63 µM (inactive)
EKVX
  GI50: 3.28 µM (inactive)
SF-268
  GI50: 0.309 µM (active)
SNB-75
  GI50: 6.79 µM (inactive)
NCI-H226
  GI50: 2.7 µM (inactive)
OVCAR-4
  GI50: 2.01 µM (inactive)
PC-3
  GI50: 3.13 µM (inactive)
Hs-578T
  GI50: 5.47 µM (inactive)
HCC 2998
  GI50: 3.12 µM (inactive)
CCRF-CEM
  GI50: 0.233 µM (active)

## COc1ccccc1C1(c2c(OC)c(=O)c2=O)SCCCS1
HL-60
  GI50: > 100 µM (inactive)
MDA-MB-231
  GI50: 83.2 µM (inactive)
SW-620
  GI50: > 100 µM (inactive)
NCI/ADR-RES
  GI50: 73.6 µM (inactive)
SK-MEL-5
  GI50: > 100 µM (inactive)
KM12
  GI50: > 100 µM (inactive)
SF-295
  GI50: 67 µM (inactive)
SK-OV-3
  GI50: > 100 µM (inactive)
A549
  GI50: 74.8 µM (inactive)
UACC-257
  GI50: 85.1 µM (inactive)
LOX IMVI
  GI50: 60.3 µM (inactive)
EKVX
  GI50: 75.2 µM (inactive)
SF-268
  GI50: > 100 µM (inactive)
SNB-75
  GI50: 71.8 µM (inactive)
NCI-H226
  GI50: 85.7 µM (inactive)
OVCAR-4
  GI50: > 100 µM (inactive)
PC-3
  GI50: > 100 µM (inactive)
Hs-578T
  GI50: 35 µM (inactive)
HCC 2998
  GI50: > 100 µM (inactive)
CCRF-CEM
  GI50: 82.6 µM (inactive)

## C[N+]1(C)C/C(=C\C=C\c2ccccc2)C(=O)/C(=C/C=C/c2ccccc2)C1
HL-60
  GI50: 1.02 µM (active)
MDA-MB-231
  GI50: 10.4 µM (inactive)
SW-620
  GI50: 9.79 µM (inactive)
NCI/ADR-RES
  GI50: > 100 µM (inactive)
SK-MEL-5
  GI50: 6.24 µM (inactive)
KM12
  GI50: 2.93 µM (inactive)
SF-295
  GI50: 23.8 µM (inactive)
SK-OV-3
  GI50: 37.7 µM (inactive)
A549
  GI50: 39.8 µM (inactive)
UACC-257
  GI50: 8.39 µM (inactive)
LOX IMVI
  GI50: 12.2 µM (inactive)
EKVX
  GI50: 45.1 µM (inactive)
SF-268
  GI50: 4.97 µM (inactive)
SNB-75
  GI50: 6.73 µM (inactive)
NCI-H226
  GI50: 22.3 µM (inactive)
OVCAR-4
  GI50: 42.7 µM (inactive)
PC-3
  GI50: 10.4 µM (inactive)
Hs-578T
  GI50: 4.29 µM (inactive)
HCC 2998
  GI50: 8.55 µM (inactive)
CCRF-CEM
  GI50: 1.78 µM (inactive)

## O=C(/C=C/c1ccccc1)CSc1nc2ccc(I)cc2c(=O)n1Cc1ccccc1
HL-60
  GI50: 17.1 µM (inactive)
MDA-MB-231
  GI50: 28.9 µM (inactive)
SW-620
  GI50: 38.6 µM (inactive)
NCI/ADR-RES
  GI50: 14 µM (inactive)
SK-MEL-5
  GI50: 12.7 µM (inactive)
KM12
  GI50: 14.5 µM (inactive)
SF-295
  GI50: 14 µM (inactive)
SK-OV-3
  GI50: 29.6 µM (inactive)
A549
  GI50: 39.9 µM (inactive)
UACC-257
  GI50: 19.4 µM (inactive)
LOX IMVI
  GI50: 37 µM (inactive)
EKVX
  GI50: 7.18 µM (inactive)
SF-268
  GI50: 14.8 µM (inactive)
SNB-75
  GI50: 29.8 µM (inactive)
NCI-H226
  GI50: 12.7 µM (inactive)
OVCAR-4
  GI50: 21.3 µM (inactive)
PC-3
  GI50: 18.3 µM (inactive)
Hs-578T
  GI50: 25.3 µM (inactive)
HCC 2998
  GI50: 19.3 µM (inactive)
CCRF-CEM
  GI50: 11.3 µM (inactive)

## Cc1ccc([N+](=O)[O-])cc1S(=O)(=O)Nc1ccc(C2=NN(S(=O)(=O)c3cc([N+](=O)[O-])ccc3C)C(c3cccs3)C2)cc1 (configuration not stated)
HL-60
  GI50: 32.9 µM (inactive)
MDA-MB-231
  GI50: 24.9 µM (inactive)
SW-620
  GI50: 49.7 µM (inactive)
NCI/ADR-RES
  GI50: 31.6 µM (inactive)
SK-MEL-5
  GI50: 29 µM (inactive)
KM12
  GI50: 30.1 µM (inactive)
SF-295
  GI50: 21.2 µM (inactive)
SK-OV-3
  GI50: 24.5 µM (inactive)
A549
  GI50: 32.7 µM (inactive)
UACC-257
  GI50: 31.5 µM (inactive)
LOX IMVI
  GI50: 57 µM (inactive)
EKVX
  GI50: 29 µM (inactive)
SF-268
  GI50: 28.1 µM (inactive)
SNB-75
  GI50: > 100 µM (inactive)
NCI-H226
  GI50: 52.7 µM (inactive)
OVCAR-4
  GI50: 37.4 µM (inactive)
PC-3
  GI50: 30 µM (inactive)
Hs-578T
  GI50: 12.8 µM (inactive)
HCC 2998
  GI50: 22.9 µM (inactive)

## CC(C)(C)N1NC1C1NN1C(C)(C)C (configuration not stated)
MDA-MB-231
  GI50: > 100 µM (inactive)
SW-620
  GI50: > 100 µM (inactive)
NCI/ADR-RES
  GI50: > 100 µM (inactive)
SK-MEL-5
  GI50: > 100 µM (inactive)
KM12
  GI50: > 100 µM (inactive)
SF-295
  GI50: > 100 µM (inactive)
SK-OV-3
  GI50: > 100 µM (inactive)
A549
  GI50: > 100 µM (inactive)
UACC-257
  GI50: > 100 µM (inactive)
LOX IMVI
  GI50: > 100 µM (inactive)
EKVX
  GI50: > 100 µM (inactive)
SF-268
  GI50: > 100 µM (inactive)
SNB-75
  GI50: > 100 µM (inactive)
NCI-H226
  GI50: > 100 µM (inactive)
OVCAR-4
  GI50: > 100 µM (inactive)
PC-3
  GI50: > 100 µM (inactive)
Hs-578T
  GI50: > 100 µM (inactive)
HCC 2998
  GI50: > 100 µM (inactive)
CCRF-CEM
  GI50: > 100 µM (inactive)

## Cc1ccc([C@@H]2[C@@H](C(=O)c3ccccn3)[C@H](c3ccc(C)cc3)C[C@](O)(c3ccccn3)[C@H]2C(=O)c2ccccn2)cc1
HL-60
  GI50: 2.52 µM (inactive)
MDA-MB-231
  GI50: > 32 µM (inactive)
SW-620
  GI50: > 22.6 µM (inactive)
NCI/ADR-RES
  GI50: 2.86 µM (inactive)
SK-MEL-5
  GI50: 3.71 µM (inactive)
KM12
  GI50: 7.98 µM (inactive)
SF-295
  GI50: 4.21 µM (inactive)
A549
  GI50: 2.77 µM (inactive)
UACC-257
  GI50: 8.04 µM (inactive)
LOX IMVI
  GI50: 2.84 µM (inactive)
EKVX
  GI50: 0.728 µM (active)
SF-268
  GI50: 0.946 µM (active)
SNB-75
  GI50: 3.33 µM (inactive)
NCI-H226
  GI50: 4.1 µM (inactive)
OVCAR-4
  GI50: 4.98 µM (inactive)
PC-3
  GI50: 6.56 µM (inactive)
Hs-578T
  GI50: 26.5 µM (inactive)
HCC 2998
  GI50: 7.35 µM (inactive)
CCRF-CEM
  GI50: 0.851 µM (active)
